Results published in patent US8192962B2, “Processes for detecting toxic substances” (Daikin Industries, Ltd., priority 2001, dated 2012).

Test system: Metabolism protein genes
Experiment: DNA chip mRNA expression in yeast, metabolism protein genes (Table 7)
Assay type: cell-based, Saccharomyces cerevisiae S288C
Method: Yeast (Saccharomyces cerevisiae S288C (α SUC2mal mel gap2 CUP1)) were incubated at 25° C. on YPD medium (yeast extract 1%, polypepton 2%, glucose 2%). One of toxic chemical substances was added to the cells at logarithmic growth phase, and the cells were further incubated for two hours. Cells were cultured without any chemical substance in the same condition, and were used as control. Concentrations of the chemical substances were defined to inhibit the growth of the yeast but not lead to death.
After completion of the incubation, the culture was centrifuged to collect the cells. To the cells, sodium acetate buffer (50 mM sodium acetate, 10 mM EDTA, 1% SDS) was added, and the mixture was shaken at 65° C. for five minutes, followed by returning to room temperature, and obtaining the supernatant, of which the procedures were repeated two times. To the supernatant, ½ amount of a solution of phenol/chloroform was added, and the mixture was centrifuged to give a supernatant, which was added with an equal amount of chloroform, and the mixture was centrifuged to give a supernatant. To the supernatant, an equal amount of isopropanol containing 0.3 M sodium acetate was added, and the mixture was allowed to stand at room temperature for 30 minutes, after which the mixture was centrifuged to give a sediment of the whole RNAs. Seventy % ethanol was added to the sediment, and the mixture was again centrifuged to give a sediment, which was then dried and dissolved in water. mRNA was isolated from the whole RNAs as followings. In view of the fact that a poly A chain is attached to the 3′ terminus of mRNA, a polynucleotide having a poly T structure which was immobilized on the surface of latex beads was used to trap the mRNA, and then the mRNA was washed and eluted with spine column (Oligotex-dT30<Super>mRNA Purification Kit, Takara). Reverse transcription of the mRNA was conducted with a reverse transcriptase (Super Script II Reverse Transcriptase; catalogue No. 18064-014, GibcoBRL) using fluorescence-labeled nucleotides to give cDNAs that were introduced with Cy3-dUTP or Cy5-dUTP during the reverse transcription.
The labeled cDNAs were dissolved in TE buffer (10mM Tris-HCl/1 mM EDTA, pH8.0), and the solution was dropped on the DNA chip containing the whole genes of yeast (DNA Chip Research Inc. Japan) so that the cDNAs were hybridized on the DNA chip at 65° C. for over 12 hours. The fluoresces intensity of the DNA chip was read with a scanner, and the ratio relative to the fluorescence intensity resulting from the absence of chemical substance was estimated as the following, which is shown in Tables 1 to 9: […]

SMILES: [Cl][Hg][Cl] [(3), HgCl2]
- The level of expressed mRNA in the presence of chemical substance/The level of expressed mRNA in the absence of chemical substance (yeast gene YJR155W): 1.4
- The level of expressed mRNA in the presence of chemical substance/The level of expressed mRNA in the absence of chemical substance (yeast gene YKL035W): 4.8
- level of expressed mRNA in the presence/in the absence of chemical substance (yeast gene YKL060C): 2.5
- The level of expressed mRNA in the presence of chemical substance/The level of expressed mRNA in the absence of chemical substance (yeast gene YKL091C): 1.4
- The level of expressed mRNA in the presence of chemical substance/The level of expressed mRNA in the absence of chemical substance (yeast gene YKL104C): 1.6
- level of expressed mRNA in the presence/in the absence of chemical substance (yeast gene YKL148C): 3.7
- The level of expressed mRNA in the presence of chemical substance/The level of expressed mRNA in the absence of chemical substance (yeast gene YKL152C): 1.9
- level of expressed mRNA in the presence/in the absence of chemical substance (yeast gene YKL157W): 2.3
- The level of expressed mRNA in the presence of chemical substance/The level of expressed mRNA in the absence of chemical substance (yeast gene YKL213C): 1.0
- The level of expressed mRNA in the presence of chemical substance/The level of expressed mRNA in the absence of chemical substance (yeast gene YKL215C): 1.3
- level of expressed mRNA in the presence/in the absence of chemical substance (yeast gene YKR034W): 1.1
- The level of expressed mRNA in the presence of chemical substance/The level of expressed mRNA in the absence of chemical substance (yeast gene YLL058W): 1.4
- level of expressed mRNA in the presence/in the absence of chemical substance (yeast gene YLR006C): 0.9
- level of expressed mRNA in the presence/in the absence of chemical substance (yeast gene YLR044C): 2.2
- level of expressed mRNA in the presence/in the absence of chemical substance (yeast gene YLR056W): 2.5
- level of expressed mRNA in the presence/in the absence of chemical substance (yeast gene YLR058C): 5.5
- level of expressed mRNA in the presence/in the absence of chemical substance (yeast gene YLR081W): 2.8
- level of expressed mRNA in the presence/in the absence of chemical substance (yeast gene YLR089C): 2.1
- The level of expressed mRNA in the presence of chemical substance/The level of expressed mRNA in the absence of chemical substance (yeast gene YLR180W): 2.4
- The level of expressed mRNA in the presence of chemical substance/The level of expressed mRNA in the absence of chemical substance (yeast gene YLR273C): 1.3
- level of expressed mRNA in the presence/in the absence of chemical substance (yeast gene YLR284C): 3.8
- The level of expressed mRNA in the presence of chemical substance/The level of expressed mRNA in the absence of chemical substance (yeast gene YLR299W): 1.5
- The level of expressed mRNA in the presence of chemical substance/The level of expressed mRNA in the absence of chemical substance (yeast gene YLR300W): 0.8
- level of expressed mRNA in the presence/in the absence of chemical substance (yeast gene YLR304C): 5.0
- The level of expressed mRNA in the presence of chemical substance/The level of expressed mRNA in the absence of chemical substance (yeast gene YLR307W): 0.7
- The level of expressed mRNA in the presence of chemical substance/The level of expressed mRNA in the absence of chemical substance (yeast gene YLR348C): 1.2
- level of expressed mRNA in the presence/in the absence of chemical substance (yeast gene YLR354C): 2.3
- level of expressed mRNA in the presence/in the absence of chemical substance (yeast gene YLR372W): 1.7
- level of expressed mRNA in the presence/in the absence of chemical substance (yeast gene YML022W): 2.0
- The level of expressed mRNA in the presence of chemical substance/The level of expressed mRNA in the absence of chemical substance (yeast gene YML054C): 1.3
- The level of expressed mRNA in the presence of chemical substance/The level of expressed mRNA in the absence of chemical substance (yeast gene YML070W): 2.5
- The level of expressed mRNA in the presence of chemical substance/The level of expressed mRNA in the absence of chemical substance (yeast gene YML100W): 10.6
- The level of expressed mRNA in the presence of chemical substance/The level of expressed mRNA in the absence of chemical substance (yeast gene YMR008C): 1.4
- level of expressed mRNA in the presence/in the absence of chemical substance (yeast gene YMR011W): 9.4
- level of expressed mRNA in the presence/in the absence of chemical substance (yeast gene YMR015C): 1.9
- The level of expressed mRNA in the presence of chemical substance/The level of expressed mRNA in the absence of chemical substance (yeast gene YMR020W): 0.9
- level of expressed mRNA in the presence/in the absence of chemical substance (yeast gene YMR083W): 2.6
- The level of expressed mRNA in the presence of chemical substance/The level of expressed mRNA in the absence of chemical substance (yeast gene YMR105C): 5.0
- The level of expressed mRNA in the presence of chemical substance/The level of expressed mRNA in the absence of chemical substance (yeast gene YMR189W): 1.9
- level of expressed mRNA in the presence/in the absence of chemical substance (yeast gene YMR205C): 2.3
- level of expressed mRNA in the presence/in the absence of chemical substance (yeast gene YMR261C): 3.6
- The level of expressed mRNA in the presence of chemical substance/The level of expressed mRNA in the absence of chemical substance (yeast gene YMR271C): 1.3
- The level of expressed mRNA in the presence of chemical substance/The level of expressed mRNA in the absence of chemical substance (yeast gene YMR296C): 1.2
- level of expressed mRNA in the presence/in the absence of chemical substance (yeast gene YMR323W): 2.9
- The level of expressed mRNA in the presence of chemical substance/The level of expressed mRNA in the absence of chemical substance (yeast gene YNL012W): 1.8
